# Laboratory results taken from patent US10471043B2, “Compounds and methods of treating bacterial infections” (ULTUPHARMA AB, priority 2015, dated 2019).
# Where two headings read alike, the source gives them in different places.
# Columns and labels:
# [1] = system: Staphylococcus aureus strain LMG15975; assay: MIC by broth micro-dilution, AM3/PBS 1:1; type: cell-based
# Experimental: (§1) At first (Table 1), MIC is determined by broth micro-dilution method. The test medium is Antibiotic Medium 3 (AM3; Difco Ltd) mixed with Phosphate Buffered Saline (PBS) in proportions 1:1. Selected MIC values are verified using cation-adjusted Mueller Hinton Broth (MHB; BD). Cell concentration of tested pathogen is adjusted to between 3 and 5×10^5 cells per ml. To verify cell concentration of tested pathogen, viable cell counts are performed directly after each MIC-test by dilution method with PBS as a dilution solvent. Cells are counted on the agar plates with 50% strength Vegetable Peptone Broth (50% VPB; Oxoid Ltd) after 16 to 20 h of incubation at 37° C.
# (§2) Cells of pathogen suspended in test medium are distributed to the wells and the plates are incubated for 16 to 20 h at 37° C. Negative controls are wells with the test medium only and positive controls are wells with the pathogen in test medium. The MIC is defined as the lowest concentration of each compound with no visible growth of pathogen.
# Example compounds of formula I were examined for antibacterial activity against the Gram-positive bacterium Staphylococcus aureus strain LMG15975 using the above described method (Table 1).
# Bacillus cereus = assay: MIC by broth micro-dilution; type: cell-based; conditions: Table 4, read-out: MIC (μg/ml) B. cereus
# Experimental: as §1, §2
# [2] = system: mupirocin-resistant strains of Staphylococcus aureus; assay: MIC against mupirocin-resistant strains; type: cell-based
# Experimental: as §1, §2
# S. aureus = assay: Antimicrobial Susceptibility Test by Broth Microdilution, M07-A9 CLSI; type: cell-based; conditions: Staphylococcus aureus
# S. epidermidis [3] = assay: as above; type: cell-based; conditions: Staphylococcus epidermidis
# E. faecium = assay: as above; type: cell-based; conditions: Enterococcus faecium; E. faecium 7, Vancomycin-resistant, Table 5; read-out: MIC
# E. faecalis = assay: as above; type: cell-based; conditions: Enterococcus faecalis
# Serratia marescens = assay: MIC panel of Gram-negative bacteria (Table 7); type: cell-based; conditions: EN0454 Serratia marescens G− PKL 3692
# Micrococcus luteus = assay: MIC panel of Gram-negative bacteria (Table 7); type: cell-based; conditions: EN0455 Micrococcus luteus G+ PKL 3693
# Proteus mirabilis = assay: MIC panel of Gram-negative bacteria (Table 7); type: cell-based
# E. coli = assay: MIC panel of Gram-negative bacteria (Table 7); type: cell-based; conditions: Escherichia coli
# P. aeruginosa = assay: MIC panel of Gram-negative bacteria (Table 7); type: cell-based; conditions: Pseudomonas aeruginosa
# Enterobacter aerogenes = assay: MIC panel of Gram-negative bacteria (Table 7); type: cell-based; conditions: Klebsiella aerogenes; EN0461 Enterobacter aerogenes G− PKL 3706
# S. epidermidis [4] = assay: MIC panel of Gram-negative bacteria (Table 7); type: cell-based; conditions: Staphylococcus epidermidis; EN0456 S. epidermidis G+ PKL 3694
# Citrobacter sp. = assay: MIC panel of Gram-negative bacteria (Table 7); type: cell-based; conditions: EN0465 Citrobacter sp. G− PKL 3710
# S. typhimurium = assay: MIC panel of Gram-negative bacteria (Table 7); type: cell-based; conditions: Salmonella enterica; EN0466 S. typhimurium G− TH6509
# A. Pittii/nosocomialis = assay: MIC panel of Gram-negative bacteria (Table 7); type: cell-based; conditions: Acinetobacter pittii; EN0180 A. Pittii/nosocomialis G−
# K. oxytoca = assay: MIC panel of Gram-negative bacteria (Table 7); type: cell-based; conditions: Klebsiella oxytoca; EN0392 K. oxytoca G−
# K. pneumoniae = assay: MIC panel of Gram-negative bacteria (Table 7); type: cell-based; conditions: Klebsiella pneumoniae
# A. baumanii = assay: MIC panel of Gram-negative bacteria (Table 7); type: cell-based
# [5] = Cytotoxicity assay, WST-8; conditions: human, HepG2 cells, CC50 (μg/mL)
# A. baumannii = assay: MIC by broth micro-dilution; type: cell-based; conditions: Acinetobacter baumannii, A. baumannii (G−), Table 2; read-out: MIC (μg/ml) A. baumannii
# Experimental: as §1, §2
# M. frederiksbergense = assay: MIC by broth micro-dilution; type: cell-based; conditions: Table 4; read-out: MIC (μg/ml) M. frederiksbergense
# Experimental: as §1, §2
# Mycobacterium smegmatis = assay: MIC by broth micro-dilution; type: cell-based; conditions: Mycolicibacterium smegmatis; Table 4; read-out: MIC (μg/ml) M. smegmatis
# Experimental: as §1, §2
# Dutch Elm disease fungus = conditions: Ayer & Villar 1985; cited from earlier work
# Pyricularia oryziae = conditions: Miyakado et al 1982; cited from earlier work
# [6] = LMG15975, S. aureus LMG15975, Table 1, read-out: MIC
# [7] = LMG15975, S. aureus LMG15975, Table 1, read-out: MIC (μg/ml)
# [8] = LMG15975, Table 4, read-out: MIC (μg/ml) S. aureus
# [9] = S. aureus V55, mupirocin-resistant
# [10] = S. aureus V86, mupirocin-resistant
molecule,measurement,setting,value
"CCCCCCCCCC1CC(O)=C(C(=O)CC2CCCCC2)C(=O)O1 (stereo not shown) [Ex. 14, 3-(2-cyclohexylacetyl)-4-hydroxy-6-nonyl-5,6-dihydro-2H-pyran-2-one]",MIC,"[1]; LMG15975, S. aureus LMG 15975 (SLU), Methicillin-resistant, Table 5, read-out: MIC (μg/mL)",0.25 µg/mL
same,MIC,[1]; [6],≤ 0.3 µM
same,MIC,[1]; [7],0.25 µg/mL
same,MIC,[1]; [8],≤ 0.1 µg/mL
same,MIC,Bacillus cereus,≤ 1 µg/mL
same,MIC,[2]; [9],≤0.1 µg/mL
same,MIC,[2]; [10],≤0.1 µg/mL
same,MIC,"[2]; S. aureus V321, mupirocin-resistant",≤0.1 µg/mL
same,MIC,"[2]; Staphylococcus aureus, S. aureus V308, mupirocin-resistant, read-out: MIC",≤ 0.1 µg/mL
same,MIC,"S. aureus; ATCC29213, S. aureus ATCC29213, QC strain, Table 5",2 µg/mL
same,MIC,"S. aureus; S. aureus 7280, Methicillin-resistant",2 µg/mL
same,MIC,"S. aureus; S. aureus MO17, Methicillin-sensitive, Table 5",1 µg/mL
same,MIC,"S. aureus; S. aureus PICI, Methicillin-resistant, Table 5",1 µg/mL
same,MIC,"S. epidermidis [3]; S. epidermis RO7, Methicillin-sensitive, Table 5",0.5 µg/mL
same,MIC,"S. epidermidis [3]; S. epidermis Staph 1, Methicillin-resistant",0.5 µg/mL
same,MIC,"S. epidermidis [3]; S. epidermis TA12, Methicillin-resistant, Table 5",0.5 µg/mL
same,MIC,E. faecium,1 µg/mL
same,MIC,"E. faecalis; E. faecalis 14, Vancomycin-resistant",1 µg/mL
same,MIC,"E. faecalis; E. faecalis 24, Vancomycin-sensitive, Table 5",1 µg/mL
same,MIC,Serratia marescens,> 64 µg/mL
same,MIC,Micrococcus luteus,0.5 µg/mL
same,MIC,Proteus mirabilis; EN0445 P. mirabilis ST19 G−,>64 µg/mL
same,MIC,"Proteus mirabilis; EN0457 Proteus mirabilis G− PKL 3695, read-out: MIC",> 64 µg/mL
same,MIC,"E. coli; EN001 E. coli WT, ENABLE Primary MIC panel",> 64 µg/mL
same,MIC,"E. coli; EN002 E. coli DtolC, ENABLE Primary MIC panel",> 64 µg/mL
same,MIC,"E. coli; EN003 E. coli D22 (lps mut), ENABLE Primary MIC panel",> 64 µg/mL
same,MIC,"E. coli; EN0012 E. coli, ENABLE L2C MIC panel",> 64 µg/mL
same,MIC,"E. coli; EN0013 E. coli Del-tolC, ENABLE L2C MIC panel",16 µg/mL
same,MIC,E. coli; EN0458 E. coli B G− PKL 3698,> 64 µg/mL
same,MIC,"P. aeruginosa; EN004 P. aeruginosa WT, ENABLE Primary MIC panel",> 64 µg/mL
same,MIC,"P. aeruginosa; EN005 P. aeruginosa Efflux mut, ENABLE Primary MIC panel",> 64 µg/mL
same,MIC,"P. aeruginosa; EN0014 P. aeruginosa, ENABLE L2C MIC panel",> 64 µg/mL
same,MIC,"P. aeruginosa; EN0015 P. aeruginosa Efflux mut, ENABLE L2C MIC panel",> 64 µg/mL
same,MIC,P. aeruginosa; EN0422 P. aeruginosa G−,> 64 µg/mL
same,MIC,P. aeruginosa; EN0459 P. aeruginosa G− PKL 3699,> 64 µg/mL
same,MIC,P. aeruginosa; EN0460 P. aeruginosa G− PKL 3704,> 64 µg/mL
same,MIC,Enterobacter aerogenes,> 64 µg/mL
same,MIC,S. epidermidis [4],1 µg/mL
same,MIC,Citrobacter sp.,> 64 µg/mL
same,MIC,S. typhimurium,> 64 µg/mL
same,MIC,A. Pittii/nosocomialis,> 64 µg/mL
same,MIC,K. oxytoca,> 64 µg/mL
same,MIC,"K. pneumoniae; EN006 K. pneumoniae WT, ENABLE Primary MIC panel",> 64 µg/mL
same,MIC,"K. pneumoniae; EN0010 K. pneumoniae, ENABLE L2C MIC panel (isogenic efflux pairs)",> 64 µg/mL
same,MIC,"K. pneumoniae; EN0011 K. pneumoniae Efflux mut, ENABLE L2C MIC panel",> 64 µg/mL
same,MIC,"A. baumanii; Acinetobacter baumannii, EN007 A. baumanii WT, ENABLE Primary MIC panel, read-out: MIC",> 64 µg/mL
same,MIC,"A. baumanii; EN0016 A. baumanii, ENABLE L2C MIC panel",>64 µg/mL
same,MIC,"A. baumanii; EN0017 A. baumanii Efflux mut, ENABLE L2C MIC panel",>64 µg/mL
same,CC50 at 48 h,"[5]; HepG2, 48 hours, Table 1",14 µM
same,CC50 at 48 h,"[5]; HepG2, Table 5",14 µM
"CCCCCCCCCC1CC(O)=C(C(=O)CCCC)C(=O)O1 (stereo not shown) [Ex. 8, 4-hydroxy-6-nonyl-3-pentanoyl-5,6-dihydro-2H-pyran-2-one]",MIC,"[1]; LMG15975, S. aureus (G+), Table 2, read-out: MIC (μg/ml) S. aureus",< 0.6 µg/mL
same,MIC,[1]; [6],≤ 1.9 µM
same,MIC,[1]; [7],≤ 0.6 µg/mL
same,MIC,[1]; [8],≤ 0.6 µg/mL
same,MIC,A. baumannii,8 to 16 µg/mL
same,MIC,Bacillus cereus,≤ 1 µg/mL
same,MIC,M. frederiksbergense,≤ 4 µg/mL
same,MIC,Mycobacterium smegmatis,≤ 4 µg/mL
same,MIC,[2]; [9],≤0.1 µg/mL
same,MIC,[2]; [10],≤0.1 µg/mL
same,MIC,"[2]; Staphylococcus aureus, S. aureus V321, mupirocin-resistant, read-out: MIC",≤ 0.1 µg/mL
same,CC50 at 48 h,"[5]; HepG2, 48 hours, Table 1",36 µM
lachnellulic acid,activity against the Dutch Elm disease fungus,Dutch Elm disease fungus,active
podoblastin A,activity against the fungus Pyricularia oryziae,Pyricularia oryziae,active
